In patent publication US6858625B1, “Quinolinecarboxylic acid derivative or salts thereof” (Wakunaga Pharmaceutical Co., Ltd., priority 1999, dated 2005):
Converted amounts (≈) assume the structure as drawn.

Key:
[1] = test system: B. subtilis ATCC6633; test: Minimum growth inhibitory concentration (MIC), standard method of the Japan Society of Chemotherapy; format: cell-based; conditions: Bacillus subtilis
Description: (§1) Their minimum growth inhibitory concentrations (MICs: μg/mL) were determined in accordance with the standard method of the Japan Society of Chemotherapy [Chemotherapy, 29(1), 76 (1981)].

[2] = test system: E. coli NIHJ-JC2; test: as above; format: cell-based; conditions: Escherichia coli, NIHJJC2
Description: as §1

[3] = test system: E. faecalis IFO12580; test: as above; format: cell-based; conditions: Enterococcus faecalis
Description: as §1

[4] = test system: K. pneumoniae KC-1; test: as above; format: cell-based; conditions: Klebsiella pneumoniae, KC1
Description: as §1

[5] = test system: M. luteus IFO12708; test: as above; format: cell-based; conditions: Micrococcus luteus
Description: as §1

[6] = test system: MRSA W200; test: as above; format: cell-based; conditions: Staphylococcus aureus
Description: as §1

[7] = test system: P. aeruginosa E-2; test: as above; format: cell-based; conditions: Pseudomonas aeruginosa, E2
Description: as §1

[8] = test system: P. aeruginosa IFO3445; test: as above; format: cell-based; conditions: Pseudomonas aeruginosa
Description: as §1

[9] = test system: P. vulgaris IFO3167; test: as above; format: cell-based; conditions: Proteus vulgaris
Description: as §1

[10] = test system: S. aureus 209P; test: as above; format: cell-based; conditions: Staphylococcus aureus
Description: as §1

[11] = test system: S. epidermidis IFO12293; test: as above; format: cell-based; conditions: Staphylococcus epidermidis
Description: as §1

[12] = test system: S. marcescens IFO3736; test: as above; format: cell-based; conditions: Serratia marcescens
Description: as §1

[13] = Phototoxicity test (ear abnormality after UV exposure); format: in vivo, ICR mice; conditions: 40 mg/kg i.v., 4 h UV 320-400 nm; for Ear abnormality (point): 0 = no abnormality to 3 = severe erythema or edema; for Ear abnormality (frequency): affected/total mice
Description: A phototoxicity test was performed by the following procedure. Female ICR mice (5 to 6 weeks old) were intravenously administered with the test compounds (40 mg/kg/10 mL), respectively, and were exposed for 4 hours to ultraviolet rays (320 to 400 nm, 1.8 mW/cm^2/sec). […] Ear abnormality was ranked by the following standards: no abnormality (0 point), mild erythema (1 point), medium erythema (2 points), and severe erythema or edema (3 points) The results are presented in Table 2.

[14] = test system: Isolated coccus 1 (clinically-isolated quinolone resistant pneumococci); test: MIC against clinically-isolated quinolone resistant pneumococci, agar plates with 5% defibrinated sheep blood; format: cell-based; conditions: Isolated coccus 1, quinolone resistant pneumococcus
Description: (§2) Using agar plates added with 5% defibrinated sheep blood, minimum growth inhibition concentrations (MICs; μg/mL) against certain pneumococci were determined in accordance with the standard method of the Japan Society of Chemotherapy [Chemotherapy, 29(1), 76 (1981)].

[15] = test system: Isolated coccus 5 (clinically-isolated quinolone resistant pneumococci); test: as above; format: cell-based; conditions: Isolated coccus 5, quinolone resistant pneumococcus
Description: as §2

[16] = In vivo pharmacokinetic study (absorption and excretion in dogs); parameters: species or system beagles; conditions: for AUC(0-t) / Cmax / Tmax / half-life / Urinary excretion rate: male beagles, per os; for AUC(0-t) / Cmax / Tmax / half-life: 10 mg/mL/kg in 0.5% methyl cellulose; for Urinary excretion rate: 10 mg/mL/kg, urine up to 24th hour
Description: An investigation was made on the absorption and excretion of the compounds of the present invention in and from dogs. A 0.5% suspension of one of the test compounds in methyl cellulose (10 mg/mL/kg) was forcedly administered per os to 2-4 years old, male beagles fasted for 16 to 17 hours. After the administration, blood samples were collected on the 0.25th, 0.5th, 1st, 2nd, 4th, 6th, 8th and 24th hours, and serum samples were obtained. To determine urinary excretion rates, urine samples were also collected up to 24th hour after the administration. The concentrations of the test compound in the serum samples and urine samples were measured by the paper disk method making use of Bacillus subtilis ATCC6633 as a test bacterium, and the absorption and excretion were ranked.

[17] = beagle, dog, po, 10 mg/kg, serum

Row | Compound | MIC [1] [µg/mL] | MIC [2] [µg/mL] | MIC [3] [µg/mL] | MIC [4] [µg/mL] | MIC [5] [µg/mL] | MIC [6] [µg/mL] | MIC [7] [µg/mL] | MIC [8] [µg/mL] | MIC [9] [µg/mL] | MIC [10] [µg/mL] | MIC [11] [µg/mL] | MIC [12] [µg/mL] | Ear abnormality (point) ([13]; 0 hour after exposure) | Ear abnormality (frequency) ([13]; 0 hour after exposure) | Ear abnormality (point) ([13]; 24 hours after exposure) | Ear abnormality (frequency) ([13]; 24 hours after exposure) | Ear abnormality (point) ([13]; 48 hours after exposure) | Ear abnormality (frequency) ([13]; 48 hours after exposure) | MIC [14] [µg/mL] | MIC [15] [µg/mL] | also measured
1 | O=C(O)c1cn(C2CC2)c2cc(N3CCNCC3)c(F)cc2c1=O [CPFX, 1-cyclopropyl-6-fluoro-7-(1-piperadinyl)-1,4-dihydro-4-oxoquinoline-3-carboxylic acid] | 0.05 (≈ 0.151 µM) | 0.025 (≈ 0.0754 µM) | 1.56 (≈ 4.71 µM) | 0.05 (≈ 0.151 µM) | 3.13 (≈ 9.45 µM) | 0.78 (≈ 2.35 µM) | 0.78 (≈ 2.35 µM) | 0.39 (≈ 1.18 µM) | 0.05 (≈ 0.151 µM) | 0.2 (≈ 0.604 µM) | 1.56 (≈ 4.71 µM) | 0.2 (≈ 0.604 µM) |  |  |  |  |  |  |  |  | 
2 | CNC1CN(c2c(F)cc3c(=O)c(C(=O)O)cn(-c4nc(N)c(F)cc4F)c3c2Br)C1 [Comparative Compound 1, 1-(6-amino-3,5-difluoropyridin-2-yl)-8-bromo-7-(3-methylaminoazetidin-1-yl)-6-fluoro-4-oxo-1,4-dihydroquinoline-3-carboxylic acid] | 0.05 (≈ 0.1 µM) | 0.013 (≈ 0.0261 µM) | 0.39 (≈ 0.783 µM) | 0.025 (≈ 0.0502 µM) | 0.39 (≈ 0.783 µM) | 0.025 (≈ 0.0502 µM) | 0.78 (≈ 1.57 µM) | 0.39 (≈ 0.783 µM) | 0.1 (≈ 0.201 µM) | 0.013 (≈ 0.0261 µM) | 0.05 (≈ 0.1 µM) | 1.56 (≈ 3.13 µM) | 0 | 0/3 | 0 | 0/3 | 0 | 0/3 | 0.06 (≈ 0.12 µM) | 0.5 (≈ 1 µM) | AUC(0-t) [16, 17]: 8540 ng·h/mL; Cmax [16, 17]: 2350 ng/mL; Tmax [16, 17]: 0.5 h; half-life [16, 17]: 2 h; Urinary excretion rate [16]: 14.8%
3 | CCNC1CN(c2c(F)cc3c(=O)c(C(=O)O)cn(-c4nc(N)c(F)cc4F)c3c2Cl)C1 [Comparative Compound 2, 1-(6-amino-3,5-difluoro-pyridin-2-yl)-8-chloro-7-(3-ethylaminoazetidin-1-yl)-6-fluoro-4-oxo-1,4-dihydroquinoline-3-carboxylic acid] | 0.025 (≈ 0.0534 µM) | 0.025 (≈ 0.0534 µM) | 0.78 (≈ 1.67 µM) | 0.05 (≈ 0.107 µM) | 0.78 (≈ 1.67 µM) | 0.025 (≈ 0.0534 µM) | 1.56 (≈ 3.33 µM) | 0.39 (≈ 0.834 µM) | 0.2 (≈ 0.428 µM) | 0.013 (≈ 0.0278 µM) | 0.05 (≈ 0.107 µM) | 1.56 (≈ 3.33 µM) | 0.7 | 2/3 | 0 | 0/3 | 0 | 0/3 |  |  | 
4 | CCNC1CN(c2c(F)cc3c(=O)c(C(=O)O)cn(-c4nc(N)c(F)cc4F)c3c2Br)C1 [Compound 1, 1-(6-amino-3,5-difluoropyridin-2-yl)-8-bromo-7-(3-ethylaminoazetidin-1-yl)-6-fluoro-4-oxo-1,4-dihydroquinoline-3-carboxylic acid] | 0.025 (≈ 0.0488 µM) | 0.025 (≈ 0.0488 µM) | 0.39 (≈ 0.761 µM) | 0.05 (≈ 0.0976 µM) | 0.39 (≈ 0.761 µM) | 0.013 (≈ 0.0254 µM) | 1.56 (≈ 3.05 µM) | 0.78 (≈ 1.52 µM) | 0.1 (≈ 0.195 µM) | 0.013 (≈ 0.0254 µM) | 0.025 (≈ 0.0488 µM) | 1.56 (≈ 3.05 µM) | 0 | 0/3 | 0 | 0/3 | 0 | 0/3 | 0.03 (≈ 0.0586 µM) | 0.12 (≈ 0.234 µM) | AUC(0-t) [16, 17]: 22800 ng·h/mL; Cmax [16, 17]: 4820 ng/mL; Tmax [16, 17]: 1 h; half-life [16, 17]: 3.8 h; Urinary excretion rate [16]: 19.8%; bioavailability ([16]; male, beagle, dog, serum, po, 10 mg/kg, administered orally, calculated from an AUC up to 24th hour after administration): 78%
5 | CCNC1CN(c2c(F)cc3c(=O)c(C(=O)O)cn(-c4nc(N)c(F)cc4F)c3c2Br)C1.O=C(O)/C=C\C(=O)O [Compound 2, 1-(6-amino-3,5-difluoropyridin-2-yl)-8-bromo-7-(3-ethylaminoazetidin-1-yl)-6-fluoro-4-oxo-1,4-dihydroquino line-3-carboxylic acid maleate] |  |  |  |  |  |  |  |  |  |  |  |  |  |  |  |  |  |  |  |  | AUC(0-t) [16, 17]: 17600 ng·h/mL; Cmax [16, 17]: 3730 ng/mL; Tmax [16, 17]: 1 h; half-life [16, 17]: 4.8 h; Urinary excretion rate [16]: 17.4%
6 | C[C@H]1COc2c(N3CCN(C)CC3)c(F)cc3c(=O)c(C(=O)O)cn1c23 [LVFX, S(−)-9-fluoro-2,3-dihydro-3-methyl-10-(4-methyl-1-piperazinyl)-7-oxo-7H-pyrido[1,2,3-de][1,4]benzoxazine-6-carboxylic acid] | 0.1 (≈ 0.277 µM) | 0.05 (≈ 0.138 µM) | 1.56 (≈ 4.32 µM) | 0.1 (≈ 0.277 µM) | 0.78 (≈ 2.16 µM) | 0.39 (≈ 1.08 µM) | 1.56 (≈ 4.32 µM) | 0.78 (≈ 2.16 µM) | 0.05 (≈ 0.138 µM) | 0.2 (≈ 0.553 µM) | 0.78 (≈ 2.16 µM) | 0.78 (≈ 2.16 µM) |  |  |  |  |  |  | 2 (≈ 5.53 µM) | 32 (≈ 88.6 µM) | 
